Reference: US9878007B2, “Syndecan peptides and polypeptides as inhibitors of vascular endothelial growth factor receptor-2 (VEGFR2) and very late antigen-4 (VLA-4)” (Wisconsin Alumni Research Foundation, priority 2015, dated 2018)
No end group written: not given here.

Legend:
VLA-4 = target: T1, VLA-4 (Homo sapiens, UniProt P05556+P13612); assay: GST pull down assay: capture of VLA-4 by GST-S1ED; type: binding; conditions: HPSE^low cell lysates; peptide 30 M [sic]
T1 construct: the α4-integrin (VLA-4), which is expressed on myeloma cells; endogenous in cells; host or cells: CAG human myeloma cells (HPSE^low), whole-cell lysate
T1 sequence (P13612 34-1032): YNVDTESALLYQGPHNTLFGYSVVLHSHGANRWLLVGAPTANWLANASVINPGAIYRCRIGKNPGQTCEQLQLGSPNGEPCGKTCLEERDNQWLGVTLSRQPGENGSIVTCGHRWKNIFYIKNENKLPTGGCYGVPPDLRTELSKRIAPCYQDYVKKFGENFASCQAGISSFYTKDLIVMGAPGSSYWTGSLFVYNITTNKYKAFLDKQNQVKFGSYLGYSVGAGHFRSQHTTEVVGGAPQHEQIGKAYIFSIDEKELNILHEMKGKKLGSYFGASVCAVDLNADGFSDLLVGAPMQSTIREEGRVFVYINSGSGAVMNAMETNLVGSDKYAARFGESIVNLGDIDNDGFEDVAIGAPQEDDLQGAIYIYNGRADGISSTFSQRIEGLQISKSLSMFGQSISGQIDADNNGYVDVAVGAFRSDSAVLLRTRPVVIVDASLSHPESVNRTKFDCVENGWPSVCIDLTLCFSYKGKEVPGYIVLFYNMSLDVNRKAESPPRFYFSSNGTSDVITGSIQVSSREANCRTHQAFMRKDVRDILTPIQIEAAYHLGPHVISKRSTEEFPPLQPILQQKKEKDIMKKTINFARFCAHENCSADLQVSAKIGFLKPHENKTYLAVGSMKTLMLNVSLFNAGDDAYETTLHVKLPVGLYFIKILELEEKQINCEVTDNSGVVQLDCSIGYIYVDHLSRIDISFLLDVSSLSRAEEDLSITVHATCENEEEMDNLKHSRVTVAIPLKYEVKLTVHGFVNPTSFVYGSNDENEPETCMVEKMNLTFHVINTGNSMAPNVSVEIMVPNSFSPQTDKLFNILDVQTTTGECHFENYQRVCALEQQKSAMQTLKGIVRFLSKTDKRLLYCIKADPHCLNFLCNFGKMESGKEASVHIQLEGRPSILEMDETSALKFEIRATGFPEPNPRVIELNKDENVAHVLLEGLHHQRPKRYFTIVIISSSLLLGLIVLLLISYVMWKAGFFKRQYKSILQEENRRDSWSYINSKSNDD
T1 sequence (P05556 21-798): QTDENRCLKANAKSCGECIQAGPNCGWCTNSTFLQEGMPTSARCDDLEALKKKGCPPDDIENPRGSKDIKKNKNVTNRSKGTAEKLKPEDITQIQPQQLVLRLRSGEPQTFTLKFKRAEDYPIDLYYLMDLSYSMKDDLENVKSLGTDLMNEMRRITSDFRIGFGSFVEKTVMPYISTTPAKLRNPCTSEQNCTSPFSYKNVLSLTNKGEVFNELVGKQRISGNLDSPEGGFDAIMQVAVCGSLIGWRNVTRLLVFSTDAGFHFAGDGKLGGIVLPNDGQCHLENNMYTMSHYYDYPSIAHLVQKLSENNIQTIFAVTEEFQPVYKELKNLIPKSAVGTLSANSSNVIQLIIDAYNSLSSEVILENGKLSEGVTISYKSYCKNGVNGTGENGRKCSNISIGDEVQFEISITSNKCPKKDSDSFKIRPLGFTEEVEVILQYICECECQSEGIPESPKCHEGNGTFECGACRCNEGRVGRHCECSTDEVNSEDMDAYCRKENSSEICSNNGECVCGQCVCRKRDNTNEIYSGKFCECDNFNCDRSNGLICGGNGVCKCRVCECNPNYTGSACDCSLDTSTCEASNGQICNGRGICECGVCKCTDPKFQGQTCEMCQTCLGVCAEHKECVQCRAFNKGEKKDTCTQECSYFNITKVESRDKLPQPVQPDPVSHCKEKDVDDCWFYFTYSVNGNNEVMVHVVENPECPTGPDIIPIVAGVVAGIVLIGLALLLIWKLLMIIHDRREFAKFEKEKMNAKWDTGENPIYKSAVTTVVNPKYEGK
Procedure: (§1) FIGS. 6A-G. Peptides derived from the active site in Sdc1 activate or inhibit adhesion and invasion. (FIG. 6A) Transwell migration assays towards FN (for 16 hrs) were performed for HPSE low or high cells in the presence of 0, 0.3, 3, and 30 μM of S1ED^210-240. Cells migrating to the bottom side of the filter were counted from five random images for each treatment. (FIG. 6B) The sequence of S1ED210-240 is shown (SEQ ID NO: 3), as well as […] truncation mutants of the peptide (SEQ ID NOs: 5, 2, 4 and 7). Amino acids shown in red appear necessary for the spreading and invasive activity. (FIG. 6C) Images of HPSE^low and HPSE^high cells plated on FN for 2 hr. (FIG. 6D) HPSE^low cells were treated with 0, 0.3, 3, 10 and 30 μM of S1ED^210-236, S1ED^210-233, or S1ED^214-240, plated on FN for 2 hr, fixed and stained with fluorescent phalloidin. Cells from five random images were quantified for cell attachment and cell spreading. (FIG. 6E) HPSE^high cells were treated with 0, 3, 10, and 30 μM of S1ED^210-236, S1ED^210-233, and S1ED^214-240, plated on FN for 2 hr, then fixed, imaged and quantified as in FIG. 6D. (FIG. 6F) Transwell migration assays towards FN (for 16 hr) were performed for HPSE^low or HPSE^high cells in the presence of 30 μM of S1ED^210-236, S1ED^210-233, S1ED^214-240 and Vandetanib. (FIG. 6G) HPSE^low cell lysates were incubated overnight with glutathione beads coated with GST or GST-S1ED in the absence or presence of 30 μM of S1ED^210-236, S1ED^210-233, and S1ED^214-240. Capture of VLA-4 or VEGFR2 was detected by immunoblotting. Sequences in FIG. 6B are 210-240 (SEQ ID NO: 3), 210-236 (SEQ ID NO: 2), 210-233 (SEQ ID NO: 4), 214-240 (SEQ ID NO: 5) and 214-236 (SEQ ID NO: 7).
(§2) CAG cells were washed with CMF-PBS and then lysed for 20 min on ice in lysis buffer. Cell debris was removed by centrifugation at 13000 rpm for 20 min at 4° C. Whole cell lysates were then incubated at 4° C. overnight with either 3 μM GST or 3 μM GST-S1ED in the absence or presence of 1 μM, 3 μM, and 10 μM S1ED^210-240 peptide. GST or GST-S1ED was captured by addition of glutathione Sepharose and the beads were washed with ice-cold lysis buffer and CMF-PBS, prior to addition of SDS-PAGE sample buffer and analyszed by electrophoresis and western blotting as described previously.

CAG myeloma cells = assay: Cell spreading / attachment assay of CAG myeloma cells on FN or VCAM-1; type: cell-based, human; conditions: on FN, 2 hr; for HPSE^high cell adhesion / HPSE^high cell spreading: 0, 3, 10 and 30 μM peptide; for HPSE^low cell adhesion: high concentrations (30 μM)
VEGFR2 = target: T2, VEGFR2 (Homo sapiens, UniProt P35968); assay: GST pull down assay: capture of VEGFR2 by GST-S1ED; type: binding; conditions: HPSE^low cell lysates; peptide 30 M [sic]
T2 construct: endogenous in cells; host or cells: CAG human myeloma cells (HPSE^low = empty vector; HPSE^high = human HPSE cDNA)
T2 sequence (P35968 20-1356): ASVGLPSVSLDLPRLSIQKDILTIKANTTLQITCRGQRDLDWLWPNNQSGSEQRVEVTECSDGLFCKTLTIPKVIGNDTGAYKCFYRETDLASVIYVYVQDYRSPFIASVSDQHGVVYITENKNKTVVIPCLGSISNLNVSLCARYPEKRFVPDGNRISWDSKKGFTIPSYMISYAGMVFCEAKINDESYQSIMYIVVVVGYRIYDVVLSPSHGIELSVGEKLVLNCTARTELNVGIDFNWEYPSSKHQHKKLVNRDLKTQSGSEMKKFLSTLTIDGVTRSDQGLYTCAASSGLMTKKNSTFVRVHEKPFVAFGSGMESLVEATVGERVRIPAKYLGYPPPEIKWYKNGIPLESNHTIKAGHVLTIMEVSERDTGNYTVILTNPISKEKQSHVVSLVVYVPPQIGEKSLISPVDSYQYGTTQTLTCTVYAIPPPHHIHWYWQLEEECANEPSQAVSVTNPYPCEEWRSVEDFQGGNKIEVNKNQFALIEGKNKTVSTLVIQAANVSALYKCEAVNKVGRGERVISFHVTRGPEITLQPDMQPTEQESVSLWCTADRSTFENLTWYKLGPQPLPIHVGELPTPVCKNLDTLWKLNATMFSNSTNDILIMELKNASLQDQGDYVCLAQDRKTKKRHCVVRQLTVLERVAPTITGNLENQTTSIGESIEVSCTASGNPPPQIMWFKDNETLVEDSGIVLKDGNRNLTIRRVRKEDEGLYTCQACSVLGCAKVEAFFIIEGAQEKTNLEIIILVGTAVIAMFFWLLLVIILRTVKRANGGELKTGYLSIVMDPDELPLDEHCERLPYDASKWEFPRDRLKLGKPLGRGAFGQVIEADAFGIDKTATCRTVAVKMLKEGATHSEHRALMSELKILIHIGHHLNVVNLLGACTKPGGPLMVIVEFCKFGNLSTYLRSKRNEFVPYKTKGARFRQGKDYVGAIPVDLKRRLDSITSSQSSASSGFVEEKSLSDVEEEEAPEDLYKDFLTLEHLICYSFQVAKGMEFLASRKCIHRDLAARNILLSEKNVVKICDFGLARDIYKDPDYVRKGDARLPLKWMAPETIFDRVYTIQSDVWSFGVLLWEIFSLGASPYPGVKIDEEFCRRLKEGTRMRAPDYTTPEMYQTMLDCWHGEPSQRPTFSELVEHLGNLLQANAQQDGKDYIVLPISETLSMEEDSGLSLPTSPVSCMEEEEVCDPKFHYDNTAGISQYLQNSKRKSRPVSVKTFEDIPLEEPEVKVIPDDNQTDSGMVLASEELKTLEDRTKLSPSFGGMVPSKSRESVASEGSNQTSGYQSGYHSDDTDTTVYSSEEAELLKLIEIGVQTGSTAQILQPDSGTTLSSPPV
Procedure: as §1, §2

HMEC-1 cells = assay: Attachment and spreading of HMEC-1 cells on IIICS; type: cell-based; conditions: plated on IIICS; 30 μM peptides, 125 μg/ml SST0001, 10 μg/ml MMP9 blocking antibody
Procedure: FIGS. 8A-H. HPSE mediated the Sdc1-coupled VEGFR2 complex in endothelial cells induces angiogenesis. (FIG. 8A) Lysates from HPSE^low, HPSE^high and HMEC-1 cells are probed by immunoblotting for expression of HPSE. (FIG. 8B) HMEC-1 cells were seeded at equal density and grown in serum-free media for 24 hr in the absence or presence of 125 μg/ml of the HPSE inhibitor SST0001. After 24 hr, conditioned media were harvested, and the level of shed Sdc1 in the conditioned medium from each condition was determined by immunoblotting. (FIG. 8C) HMEC-1 cell lysate was incubated overnight with glutathione beads coated with GST or GST-S1ED. Capture of VLA-4 or VEGFR2 was detected by immunoblotting. (FIG. 8D) HMEC-1 cells were plated on IIICS for 3 hr and double stained for VLA-4 and Sdc1, VEGFR2 and Sdc1, or VLA-4 and VEGFR2. (FIG. 8E) HMEC-1 cells were treated with DMSO, VLA-4 blocking antibody P1H4, β1-integrin blocking antibody mAb13, 10 μg/ml MMP9 blocking antibody, 125 μg/ml HPSE inhibitor SST0001, Vandetanib, VEGFR2 blocking antibody, 30 μM S1ED^210-233 or 30 μM S1ED^214-240 and then plated on IIICS. Images were taken from random field with 200× magnification for counting attached and spread cells. (FIG. 8F) HMEC-1 cells were plated on IIICS in the presence of 10 μM of S1ED^210-236, S1ED^210-233, S1ED^215-240, and S1ED^214-240. […]

| Substance | competition for capture of VLA-4 by GST-S1ED (VLA-4) | HPSE^low cell spreading (CAG myeloma cells; 0, 0.3, 3, 10 and 30 μM peptide) | HPSE^high cell adhesion (CAG myeloma cells) | HPSE^high cell spreading (CAG myeloma cells) | HPSE^low cell adhesion (CAG myeloma cells) | competition for capture of VEGFR2 by GST-S1ED (VEGFR2) | VLA-4 dependent spreading of HMEC-1 cells (HMEC-1 cells) |
| --- | --- | --- | --- | --- | --- | --- | --- |
| DFTFETSGENTAVVAVEPDRRNQSPVD [S1ED^210-236] | effectively blocks capture of both receptors | induces HPSE^low cell spreading equal to that observed with S1ED^210-240 | induce cell detachment | block cell spreading when added at increasing concentrations | block cell adhesion | effectively blocks capture of both receptors | – |
| S1ED^210-233: syndecan-1 ectodomain peptide, residues 210-233 (SEQ ID NO: 4) (DFTFETSGENTAVVAVEPDRRNQS) | – | – | induce cell detachment | block cell spreading when added at increasing concentrations | block cell adhesion | competes for capture of VEGFR2 | prevented |
